Experimental data: patent publication US20100249175A1, “Dicationic compounds which selectively recognize G-quadruplex DNA” (priority 2005, published 2010)

Experiments:
[1] = system: human telomeric sequence d[AG3(T2AG3)3] (SEQ ID NO: 1); assay: Surface plasmon resonance, immobilized human telomeric DNA; type: binding
Experimental: Surface plasmon resonance (SPR) measurements were performed with a four-channel Biacore® 3000 optical biosensor system (Biacore International AB, Uppsala, Sweden). 5′-biotin labeled DNA was immobilized onto streptavidin-coated Biacore® SA sensor chips as previously described. See Lacy, E. R., et al., J. Amer. Chem. Soc., 124, 2153-2163 (2002); Mazur, S., et al., J. Mol. Biol., 300, 321-337 (2000); Nguyen, B., et al., Biopolymers, 63, 281-297 (2002); Wang, L., et at, Proc. Natl. Acad. Sci. USA, 97, 12-16 (2000); and Wang, L., et al., Biochemistry, 40, 2511-2521 (2001). Two flow cells were used to immobilize the
DNA oligomer samples, while a third cell was left blank as a control. The SPR studies were performed at 25° C. in a filtered, degassed, 10 mM HEPES buffer (pH 7.4) containing 200 mM KCl, 3 mM EDTA and 0.005% surfactant P20 (Biacore International AB). Compound solutions were prepared by serial dilutions from stock solution and injected from 7-mm plastic vials with pierceable plastic crimp caps.
Solutions of known concentration of 8 ranging from 2 nM to 10 μM were injected through the flow cells until a constant steady-state response was obtained. […] The instrument response (RU) in the steady-state region was determined by linear averaging over a 50 second time span. The predicted maximum response per bound compound in the steady-state region (RUmax) was determined from the DNA molecular weight, the amount of DNA on the flow cell, the compound molecular weight, and the refractive index gradient ratio of the compound and DNA, as previously described. […] To obtain the binding constants, the data were fitted to a two-site equilibrium model using KaleidaGraph (Synergy Software, Reading, Pa., United States of America) for nonlinear least square optimization of the binding parameters, where RUmax is the maximum response per bound compound and K1 and K2 are the macroscopic binding constants for a two-site binding model: […]
Surface plasmon resonance (SPR) was used to quantitatively evaluate the interaction between 8 and human telomeric DNA. […]

human telomeric DNA = assay: Thermal melting (ΔTm) of human telomeric DNA; type: binding; details: HEPES buffer containing 50 mM KCl monitored at 295 nm (data not shown)
[2] = system: Plasmodium falciparum (P. f.); assay: In vitro antiprotozoal activity against P. f.; type: cell-based; details: in vitro, read-out: P.f. (IC50)
Experimental: In vitro antiprotozoal activities were measured following established protocols. […] E., et al., Bioorg.

[3] = SPR, 25° C., HEPES buffer containing 200 mM KCl

N=C(N)c1ccc(-c2ccc(-c3ccc(C(=N)N)o3)o2)cc1 [Compound 8, 5′-(4-Amidinophenyl)-2,2′-bifuran-5-carboxamidine]
selectivity for the human telomeric quadruplex over the duplex DNA ([1]; SPR binding constants): approximately 4 fold
K1, macroscopic binding constant, two-site model [1, 3]: 470000 M⁻¹
K2, macroscopic binding constant, two-site model [1, 3]: 45000 M⁻¹
ΔTm (human telomeric DNA): approximately 10 °C
IC50 [2]: 41.5 nM
